{"source": "patent US10561703B2", "about": "“Method of modulating sex hormone levels using a sex hormone secretion modulator” (GEMVAX & KAEL CO., LTD., priority 2013, dated 2020)", "test_system": "LH", "assay": "LH level in blood (serum CLIA) after repeated sc PEP-1", "assay_type": "in vivo, SD rats", "experimental": "PEP-1 (peptide of SEQ ID NO: 1), lyophilized white powder, obtained according to the method mentioned in example 1 was dissolved in 0.9% of saline, considering the correction factor of PEP-1 (purity: 94.13%, content: 92.36%, correction factor: 1.15). 50 mg/mL stock solution was further diluted into 20 mg/mL, 2 mg/mL, and 1 mg/mL with 0.9% saline, and stored at 4° C. for a week until the use.\nThe purpose of this example is to confirm the change of sexual hormones in blood from SD rats with 7 days repeated daily administration of SEQ ID NO: 1 peptide, PEP-1. This experiment followed the Ethics Regulation of Animal Test by KAMSI Inc. (Korea Animal Medical Science Institute). In addition, this experiment, Non-GLP experiment, referred to the MFDS (Ministry of Food and Drug Safety) notification; Agent 2013-40 (5th April 2013), Principles of Good Laboratory Practice (1997).\nSPF Rats (Crlj:CD(SD)) were purchased from ORIENTBio Inc. (Mokdong-ri, Buk-myeon, Gapyeong-gun, Gyeonggi-do, Republic of Korea). 75 male (6.5 weeks old and 190˜210 g) and 75 female (6.5 weeks old and 160˜180 g) rats were monitored for 4 days, and 64 of male and female rats (each) were selected for the experiment. Raising condition is as follows; 23±3° C. of temperature, […] of relative humidity, 10˜20 times/hr of number of air changes, 12 hours (8 a.m.˜8 p.m.) of lighting with 150˜300 Lux of intensity.\n64 male and female […] (mentioned above) were divided into 8 groups. Administration regimen, for example, drugs, routes, dosages, and volumes were as follows:\nThe detailed administration regimen is as follows; once a day, twice a day and twice a week in each experimental group. Injection initiated at 10 a.m. every day, and each rat was injected at one minute intervals. Rats in Group 9, 10, 13 and 14 were injected twice a week. Administration of high dose test agent preceded that of low dose. The volume of injection was calculated using recently measured weight of rats, and it was 5 mL/kg. Subcutaneous injection was performed as follows; assistant tilted the back of rat upward, and experimenter sterilized the back of rat with 70% alcohol, followed by subcutaneous injection of test agent with 26 G syringe.\n1.4 mL of blood sample (0.7 mL of serum) was collected after measurement of weight (Day 0). Next day (1 Day), 1.4 mL of blood sample (0.7 mL of serum) was collected twice after injection of test agent (4 hrs and 8 hrs after administration of test agent). For next 6 days (Day 2˜Day 7), 1.4 mL of blood was extracted once everyday (4 hours after injection of test agent). Dose and volume of test agent of each group followed the Table 3, and injection time zone was same every day. Blood was extracted from the jugular vein, and left at room temperature for 30 minutes. Serum was separated using centrifugation (10,000 rpm for 5 minutes), and stored at −70±5° C. in Deep freezer until the use. Blood extraction from each subject was done in the same time zone every day.\nA CLIA (Chemi-Luminescence Immune Assay) Kit was used to analyze Testosterone, Estradiol E2, FSH (Follicle stimulating hormone), and LH (Luteinizing hormone). Analysis was completed within 48 hrs after blood extraction (Laboratory Medicine Department, Chung-Ang University Hospital), and detailed method is as follows; One-way ANOVA was used to verify the comparison between the vehicle and PEP-1, and between different doses of PEP-1. For further analysis, Duncan test was used as parametric test and Dunnett's test as non-parametric test. p<0.05 represents the statistical significance, and all statistical analysis was carried out with SPSS 10.1.\nLH was analyzed using the samples prepared from example 2. 50 μL of serum was used for analysis. Fundamentals of analysis is Two-site sandwich immunoassay based on direct chemi-luminescent. As mentioned in example 2, CLIA (Chemi-luminescence immune assay) Kit was used, following the manufacture's protocol."}
{"sequence": "EARPALLTSRLRFIPK (listed as Homo sapiens) [PEP-1, hormone secretion modulator / GnRH analog]", "values": [{"measurement": "LH level in blood", "setting": "G3 Male 5 mg/kg sc 1/day x7, 7 days", "value": 0.13, "unit": "mIU/mL"}, {"measurement": "LH level in blood", "setting": "G4 Female 5 mg/kg sc 1/day x7, 4 hr", "value": 0.16, "unit": "mIU/mL"}, {"measurement": "LH level in blood", "setting": "G4 Female 5 mg/kg sc 1/day x7, 8 hr", "value": 0.24, "unit": "mIU/mL"}, {"measurement": "LH level in blood", "setting": "G4 Female 5 mg/kg sc 1/day x7, 2 days", "value": 0.19, "unit": "mIU/mL"}, {"measurement": "LH level in blood", "setting": "G4 Female 5 mg/kg sc 1/day x7, 3 days", "value": 0.13, "unit": "mIU/mL"}, {"measurement": "LH level in blood", "setting": "G4 Female 5 mg/kg sc 1/day x7, 4 days", "value": 0.13, "unit": "mIU/mL"}, {"measurement": "LH level in blood", "setting": "G4 Female 5 mg/kg sc 1/day x7, 5 days", "value": 0.14, "unit": "mIU/mL"}, {"measurement": "LH level in blood", "setting": "G4 Female 5 mg/kg sc 1/day x7, 6 days", "value": 0.14, "unit": "mIU/mL"}, {"measurement": "LH level in blood", "setting": "G4 Female 5 mg/kg sc 1/day x7, 7 days", "value": 0.16, "unit": "mIU/mL"}, {"measurement": "LH level in blood", "setting": "G4 Female 5 mg/kg sc 1/day x7, pre", "value": 0.12, "unit": "mIU/mL"}, {"measurement": "LH level in blood", "setting": "G6 Female 10 mg/kg sc 1/day x7, 4 hr", "value": 0.41, "unit": "mIU/mL"}, {"measurement": "LH level in blood", "setting": "G6 Female 10 mg/kg sc 1/day x7, 8 hr", "value": 0.26, "unit": "mIU/mL"}, {"measurement": "LH level in blood", "setting": "G6 Female 10 mg/kg sc 1/day x7, 2 days", "value": 0.22, "unit": "mIU/mL"}, {"measurement": "LH level in blood", "setting": "G6 Female 10 mg/kg sc 1/day x7, 3 days", "value": 0.19, "unit": "mIU/mL"}, {"measurement": "LH level in blood", "setting": "G6 Female 10 mg/kg sc 1/day x7, 4 days", "value": 0.15, "unit": "mIU/mL"}, {"measurement": "LH level in blood", "setting": "G6 Female 10 mg/kg sc 1/day x7, 5 days", "value": 0.15, "unit": "mIU/mL"}, {"measurement": "LH level in blood", "setting": "G6 Female 10 mg/kg sc 1/day x7, 6 days", "value": 0.17, "unit": "mIU/mL"}, {"measurement": "LH level in blood", "setting": "G6 Female 10 mg/kg sc 1/day x7, 7 days", "value": 0.16, "unit": "mIU/mL"}, {"measurement": "LH level in blood", "setting": "G6 Female 10 mg/kg sc 1/day x7, pre", "value": 0.12, "unit": "mIU/mL"}, {"measurement": "LH level in blood", "setting": "G8 Female 10 mg/kg sc 2/day x4, 4 hr", "value": 0.22, "unit": "mIU/mL"}, {"measurement": "LH level in blood", "setting": "G8 Female 10 mg/kg sc 2/day x4, 8 hr", "value": 0.15, "unit": "mIU/mL"}, {"measurement": "LH level in blood", "setting": "G8 Female 10 mg/kg sc 2/day x4, 2 days", "value": 0.17, "unit": "mIU/mL"}, {"measurement": "LH level in blood", "setting": "G8 Female 10 mg/kg sc 2/day x4, 3 days", "value": 0.28, "unit": "mIU/mL"}, {"measurement": "LH level in blood", "setting": "G8 Female 10 mg/kg sc 2/day x4, 4 days", "value": 0.13, "unit": "mIU/mL"}, {"measurement": "LH level in blood", "setting": "G8 Female 10 mg/kg sc 2/day x4, 5 days", "value": 0.23, "unit": "mIU/mL"}, {"measurement": "LH level in blood", "setting": "G8 Female 10 mg/kg sc 2/day x4, 6 days", "value": 0.15, "unit": "mIU/mL"}, {"measurement": "LH level in blood", "setting": "G8 Female 10 mg/kg sc 2/day x4, 7 days", "value": 0.28, "unit": "mIU/mL"}, {"measurement": "LH level in blood", "setting": "G8 Female 10 mg/kg sc 2/day x4, pre", "value": 0.13, "unit": "mIU/mL"}, {"measurement": "LH level in blood", "setting": "G9 Male 10 mg/kg sc 2/week x2 (days 1,7), 4 hr", "value": 0.62, "unit": "mIU/mL"}, {"measurement": "LH level in blood", "setting": "G9 Male 10 mg/kg sc 2/week x2 (days 1,7), 8 hr", "value": 0.14, "unit": "mIU/mL"}, {"measurement": "LH level in blood", "setting": "G9 Male 10 mg/kg sc 2/week x2 (days 1,7), 2 days", "value": 0.12, "unit": "mIU/mL"}, {"measurement": "LH level in blood", "setting": "G9 Male 10 mg/kg sc 2/week x2 (days 1,7), 3 days", "value": 0.12, "unit": "mIU/mL"}, {"measurement": "LH level in blood", "setting": "G9 Male 10 mg/kg sc 2/week x2 (days 1,7), 4 days", "value": 0.13, "unit": "mIU/mL"}, {"measurement": "LH level in blood", "setting": "G9 Male 10 mg/kg sc 2/week x2 (days 1,7), 5 days", "value": 0.14, "unit": "mIU/mL"}, {"measurement": "LH level in blood", "setting": "G9 Male 10 mg/kg sc 2/week x2 (days 1,7), 6 days", "value": 0.11, "unit": "mIU/mL"}, {"measurement": "LH level in blood", "setting": "G9 Male 10 mg/kg sc 2/week x2 (days 1,7), 7 days", "value": 0.67, "unit": "mIU/mL"}, {"measurement": "LH level in blood", "setting": "G9 Male 10 mg/kg sc 2/week x2 (days 1,7), pre", "value": 0.12, "unit": "mIU/mL"}, {"measurement": "LH level in blood", "setting": "G10 Female 10 mg/kg sc 2/week x2 (days 1,7), 4 hr", "value": 0.25, "unit": "mIU/mL"}, {"measurement": "LH level in blood", "setting": "G10 Female 10 mg/kg sc 2/week x2 (days 1,7), 8 hr", "value": 0.23, "unit": "mIU/mL"}, {"measurement": "LH level in blood", "setting": "G10 Female 10 mg/kg sc 2/week x2 (days 1,7), 2 days", "value": 0.17, "unit": "mIU/mL"}, {"measurement": "LH level in blood", "setting": "G10 Female 10 mg/kg sc 2/week x2 (days 1,7), 3 days", "value": 0.14, "unit": "mIU/mL"}, {"measurement": "LH level in blood", "setting": "G10 Female 10 mg/kg sc 2/week x2 (days 1,7), 4 days", "value": 0.13, "unit": "mIU/mL"}, {"measurement": "LH level in blood", "setting": "G10 Female 10 mg/kg sc 2/week x2 (days 1,7), 5 days", "value": 0.15, "unit": "mIU/mL"}, {"measurement": "LH level in blood", "setting": "G10 Female 10 mg/kg sc 2/week x2 (days 1,7), 6 days", "value": 0.12, "unit": "mIU/mL"}, {"measurement": "LH level in blood", "setting": "G10 Female 10 mg/kg sc 2/week x2 (days 1,7), 7 days", "value": 0.26, "unit": "mIU/mL"}, {"measurement": "LH level in blood", "setting": "G10 Female 10 mg/kg sc 2/week x2 (days 1,7), pre", "value": 0.25, "unit": "mIU/mL"}, {"measurement": "LH level in blood", "setting": "G11 Male 100 mg/kg sc 1/day x7, 4 hr", "value": 1.16, "unit": "mIU/mL"}, {"measurement": "LH level in blood", "setting": "G11 Male 100 mg/kg sc 1/day x7, 8 hr", "value": 0.18, "unit": "mIU/mL"}, {"measurement": "LH level in blood", "setting": "G11 Male 100 mg/kg sc 1/day x7, 2 days", "value": 0.28, "unit": "mIU/mL"}, {"measurement": "LH level in blood", "setting": "G11 Male 100 mg/kg sc 1/day x7, 3 days", "value": 0.23, "unit": "mIU/mL"}, {"measurement": "LH level in blood", "setting": "G11 Male 100 mg/kg sc 1/day x7, 4 days", "value": 0.18, "unit": "mIU/mL"}]}
